In patent US7745443B2 (Sanofi-Aventis Deutschland GmbH, priority 2002, dated 2010):

target: binding of human von Willebrand factor to europium (Eu)-chelate-labeled chimeric GPIb-Fc protein (Homo sapiens, UniProt P04275+P07359); experiment: Von Willebrand Factor-GPIb Binding Assay (Eu based, botrocetin-induced); settings: botrocetin-induced binding of Eu-chelate-labeled chimeric GPIb-Fc to immobilized human vWF; IC50 values as specified in the examples
Procedure: Activity of compounds of the formula I was shown by an Eu based binding assay in which the binding of human von Willebrand factor to an europium (Eu)-chelate-labeled chimeric GPIb-Fc protein was induced by botrocetin. The preparation of the Eu-chelate-labeled chimeric GPIb-Fc protein is described in detail in a patent application (Fukuchi et al., EP1074564).
A TBS (Tris buffered saline, 20 mM Tris-HCl (pH 7.4) and 0.15 M NaCl) (50 microl) containing human von Willebrand factor (2.5 microg/ml) was added to each well of 1 96-well plate, and the von Willebrand factor was immobilized as a solid phase overnight at 4 dec. Each well was washed once with TBS (150 microl) and blocked with TBS containing 5% BSA (bovine serum albumin) for about 3 hours. Each well of the plate was washed twice with TBS (150 microl), and then added with 25 microl of an assay buffer (Assay Buffer, 1244-106, produced by Wallac) with the compounds, further added with the assay buffer (25 microl) containing the europium (Eu)-chelate-labeled chimeric GPIb-Fc protein (100 ng/ml), labeled with Eu-N1-ITC (Eu-chelate of N^1-(p-isothiocyanatebenzyl)-diethlenetriamine-N^1,N^2,N^3,N^3-tetraacetic acid, 1244-302, produced by Wallac) and botrocetin (500 ng/ml), and left stand at room temperature for 2 hours. The preparation of the Eu-chelate-labeled chimeric GPIb-Fc protein is described in detail in a patent application (Fukuchi et al., EP1074564). Each well of the plate was washed 5 times with TBS (150 microl) containing 0.05% Tween-20, then added with 100 microl of a fluorescence enhancement buffer (Enhancement Solution, 1244-104, produced by Wallac), and shaken for 1 minute. Then, the amount of europium (Eu) was measured by using a 1420 ARVO multi-label counter (produced by Wallac, measurements time: 1 second).

binding of human von Willebrand factor to europium (Eu)-chelate-labeled chimeric GPIb-Fc protein, sequence (P04275 764-2813 limits assumed, change not shown): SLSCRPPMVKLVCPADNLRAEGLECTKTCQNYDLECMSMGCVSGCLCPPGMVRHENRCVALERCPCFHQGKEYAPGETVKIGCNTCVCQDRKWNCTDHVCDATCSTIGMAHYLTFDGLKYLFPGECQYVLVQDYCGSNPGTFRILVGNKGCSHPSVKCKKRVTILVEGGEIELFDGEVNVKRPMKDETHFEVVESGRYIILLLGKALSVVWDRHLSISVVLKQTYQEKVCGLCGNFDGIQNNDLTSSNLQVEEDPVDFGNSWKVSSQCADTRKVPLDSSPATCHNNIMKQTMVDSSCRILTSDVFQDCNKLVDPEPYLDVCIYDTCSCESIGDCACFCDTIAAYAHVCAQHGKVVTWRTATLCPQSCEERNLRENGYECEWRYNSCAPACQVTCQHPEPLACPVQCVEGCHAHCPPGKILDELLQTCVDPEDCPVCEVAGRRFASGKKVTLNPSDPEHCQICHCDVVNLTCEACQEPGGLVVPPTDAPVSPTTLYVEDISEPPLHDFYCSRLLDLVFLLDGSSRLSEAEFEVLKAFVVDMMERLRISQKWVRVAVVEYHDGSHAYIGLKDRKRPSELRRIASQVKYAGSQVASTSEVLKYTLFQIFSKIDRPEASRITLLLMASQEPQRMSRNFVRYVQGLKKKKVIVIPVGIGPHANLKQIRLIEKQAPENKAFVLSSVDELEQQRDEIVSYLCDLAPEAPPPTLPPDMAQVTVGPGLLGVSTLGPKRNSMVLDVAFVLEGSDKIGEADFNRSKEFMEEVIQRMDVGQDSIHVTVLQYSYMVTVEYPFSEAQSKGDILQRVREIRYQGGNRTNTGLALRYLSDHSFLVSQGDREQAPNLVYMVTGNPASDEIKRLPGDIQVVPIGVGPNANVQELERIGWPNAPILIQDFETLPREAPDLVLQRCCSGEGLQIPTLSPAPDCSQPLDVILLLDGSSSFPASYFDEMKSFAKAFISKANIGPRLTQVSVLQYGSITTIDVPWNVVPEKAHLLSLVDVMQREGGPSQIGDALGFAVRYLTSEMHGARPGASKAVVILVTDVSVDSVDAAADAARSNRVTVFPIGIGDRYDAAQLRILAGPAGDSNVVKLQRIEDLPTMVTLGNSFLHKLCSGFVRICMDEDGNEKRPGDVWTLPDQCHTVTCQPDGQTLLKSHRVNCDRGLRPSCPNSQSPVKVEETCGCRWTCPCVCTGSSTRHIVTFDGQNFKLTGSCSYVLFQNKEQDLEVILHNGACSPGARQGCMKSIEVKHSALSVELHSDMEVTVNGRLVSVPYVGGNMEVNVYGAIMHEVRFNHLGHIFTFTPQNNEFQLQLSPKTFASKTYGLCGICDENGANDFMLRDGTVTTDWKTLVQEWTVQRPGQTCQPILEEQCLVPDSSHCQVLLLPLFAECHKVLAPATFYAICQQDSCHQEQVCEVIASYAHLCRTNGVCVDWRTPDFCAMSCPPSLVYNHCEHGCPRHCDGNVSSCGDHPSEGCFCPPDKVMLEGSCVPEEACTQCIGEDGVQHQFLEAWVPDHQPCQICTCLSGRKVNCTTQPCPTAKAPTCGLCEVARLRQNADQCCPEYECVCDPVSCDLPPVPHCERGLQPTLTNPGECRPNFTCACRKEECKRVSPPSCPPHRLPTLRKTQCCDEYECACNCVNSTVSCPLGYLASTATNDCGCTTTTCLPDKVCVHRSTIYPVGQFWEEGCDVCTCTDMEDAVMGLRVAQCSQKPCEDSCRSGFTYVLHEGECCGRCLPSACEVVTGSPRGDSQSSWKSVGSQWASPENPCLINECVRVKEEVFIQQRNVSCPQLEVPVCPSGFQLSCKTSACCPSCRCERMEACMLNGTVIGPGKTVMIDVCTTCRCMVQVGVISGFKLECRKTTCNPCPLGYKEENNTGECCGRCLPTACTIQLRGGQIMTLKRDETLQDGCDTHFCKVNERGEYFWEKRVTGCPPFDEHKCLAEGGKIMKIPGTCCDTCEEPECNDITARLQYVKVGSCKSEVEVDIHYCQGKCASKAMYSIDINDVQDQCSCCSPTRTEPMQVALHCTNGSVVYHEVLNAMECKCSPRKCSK
binding of human von Willebrand factor to europium (Eu)-chelate-labeled chimeric GPIb-Fc protein, sequence (P07359 17-335 limits assumed, change not shown): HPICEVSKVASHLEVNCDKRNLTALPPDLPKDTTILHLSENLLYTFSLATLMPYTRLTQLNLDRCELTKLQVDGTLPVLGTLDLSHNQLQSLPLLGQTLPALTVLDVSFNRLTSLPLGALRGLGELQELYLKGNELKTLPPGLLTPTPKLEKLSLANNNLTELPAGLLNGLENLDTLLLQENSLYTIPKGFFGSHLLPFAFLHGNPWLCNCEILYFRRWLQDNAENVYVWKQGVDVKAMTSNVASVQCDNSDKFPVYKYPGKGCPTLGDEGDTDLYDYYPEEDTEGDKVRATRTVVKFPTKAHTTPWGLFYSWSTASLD

IC50 | Molecule
24.3 µM | Cc1cc(NCCC(=O)Nc2ccc3nc(C)cc(N)c3c2)nc(N)n1 [Example 1, 3-(2-Amino-6-methyl-pyrimidin-4-ylamino)-N-(4-amino-2-methyl-quinolin-6-yl)-propionamide]
92.1 µM | Cc1cc(N)c2cc(NC(=O)c3ccc(CNc4cc(C)[n+](C)c(N)n4)cc3)ccc2n1 [Example 3, 2-Amino-4-[4-(4-amino-2-methyl-quinolin-6-ylcarbamoyl)-benzylamino]-1,6-dimethyl-pyrimidin-1-ium]
75.5 µM | Cc1cc(N)c2cc(NC(=O)c3ccc(CNC(=O)c4cnccn4)cc3)ccc2n1 [Example 4, Pyrazine-2-carboxylic acid 4-(4-amino-2-methyl-quinolin-6-ylcarbamoyl)-benzylamide]
89.9 µM | Cc1cc(N)c2cc(NC(=O)c3ccc(CNC(=O)c4ccc(N)nc4)cc3)ccc2n1 [Example 5, 6-Amino-N-[4-(4-amino-2-methyl-quinolin-6-ylcarbamoyl)-benzyl]-nicotinamide]
47.9 µM | Cc1cc(N)c2cc(NC(=O)c3ccc(CNC(=O)c4cncc(N5CCCC5)n4)cc3)ccc2n1 [Example 6, 6-Pyrrolidin-1-yl-pyrazine-2-carboxylic acid 4-(4-amino-2-methyl-quinolin-6-ylcarbamoyl)-benzylamide]
7.62 µM | Cc1cc(N)c2cc(C(=O)Nc3ccc(Nc4cc(C)[n+](C)c(N)n4)cc3)ccc2n1 [Example 7, 2-Amino-4-[(4-{[(4-amino-2-methyl-6-quinolinyl)carbonyl]amino}phenyl)amino]-1,6-dimethylpyrimidin-1-ium]
82.6 µM | Cc1cc(N)c2cc(C(=O)Nc3cccc(Nc4cc(C)[n+](C)c(N)n4)c3)ccc2n1 [Example 8, 2-Amino-4-[(3-{[(4-amino-2-methyl-6-quinolinyl)carbonyl]amino}phenyl)amino]-1,6-dimethylpyrimidin-1-ium]
20.1 µM | Cc1cc(N)c2cc(C(=O)Nc3ccc(CNc4cc(C)[n+](C)c(N)n4)cc3)ccc2n1 [Example 9, 2-Amino-4-[(4-{[(4-amino-2-methyl-6-quinolinyl)carbonyl]amino}benzyl)amino]-1,6-dimethylpyrimidin-1-ium]
68.6 µM | Cc1cc(NCc2ccc(NC(=O)c3ccc4nc(C)cc(N)c4c3)cc2)nc(N)n1 [Example 10, 2-Amino-4-[(4-{[(4-amino-2-methyl-6-quinolinyl)carbonyl]amino}benzyl)amino]-6-methylpyrimidine]
42.9 µM | Cc1cc(N)c2cc(C(=O)Nc3ccc(CNC(=O)c4ccc(Cl)nc4)cc3)ccc2n1 [Example 11, 4-Amino-N-[4-({[(6-chloro-3-pyridinyl)carbonyl]amino}methyl)phenyl]-2-methyl-6-quinolinecarboxamide]
58.4 µM | Cc1cc(N)c2cc(C(=O)Nc3ccc(CNC(=O)c4ccccn4)cc3)ccc2n1 [Example 12, 4-Amino-2-methyl-N-(4-{[(2-pyridinylcarbonyl)amino]methyl}phenyl)-6-quinolinecarboxamide]
90.1 µM | Cc1cc(N)c2cc(C(=O)Nc3ccc(CNC(=O)c4ccnc(Cl)c4)cc3)ccc2n1 [Example 13, 4-Amino-N-[4-({[(2-chloro-4-pyridinyl)carbonyl]amino}methyl)phenyl]-2-methyl-6-quinolinecarboxamide]
28.8 µM | Cc1cc(N)c2cc(C(=O)Nc3ccc(CNC(=O)c4cncc(Br)c4)cc3)ccc2n1 [Example 14, 4-Amino-N-[4-({[(3-bromo-5-pyridinyl)carbonyl]amino}methyl)phenyl]-2-methyl-6-quinolinecarboxamide]
54.7 µM | Cc1cc(N)c2cc(C(=O)Nc3ccc(CNC(=O)c4nccnc4N)cc3)ccc2n1 [Example 15, 4-Amino-N-[4-({[(3-amino-2-pyrazinyl)carbonyl]amino}methyl)phenyl]-2-methyl-6-quinolinecarboxamide]
43.2 µM | Cc1cc(N)c2cc(C(=O)Nc3ccc(NC(=O)c4ccccn4)cc3)ccc2n1 [Example 16, 4-Amino-N-{4-[(2-pyridinylcarbonyl)amino]phenyl}-2-methyl-6-quinolinecarboxamide]
15 µM | Cc1cc(N)c2cc(C(=O)Nc3ccc(NC(=O)c4cccnc4)cc3)ccc2n1 [Example 17, 4-Amino-N-{4-[(3-pyridinylcarbonyl)amino]phenyl}-2-methyl-6-quinolinecarboxamide]

IC50 | Molecule
52.6 µM | Cc1cc(N)c2cc(C(=O)Nc3ccc(NC(=O)c4cccnc4Cl)cc3)ccc2n1 [Example 18, 4-Amino-N-(4-{[(2-chloro-3-pyridinyl)carbonyl]amino}phenyl)-2-methyl-6-quinolinecarboxamide]
20.9 µM | Cc1cc(N)c2cc(C(=O)Nc3ccc(NC(=O)c4cncc(Br)c4)cc3)ccc2n1 [Example 19, 4-Amino-N-(4-{[(5-bromo-3-pyridinyl)carbonyl]amino}phenyl)-2-methyl-6-quinolinecarboxamide]
4.41 µM | Cc1cc(N)c2cc(C(=O)Nc3ccc(NC(=O)c4nccnc4N)cc3)ccc2n1 [Example 20, 4-Amino-N-(4-{[(2-amino-3-pyrazinyl)carbonyl]amino}phenyl)-2-methyl-6-quinolinecarboxamide]
34.4 µM | Cc1cc(N)c2cc(C(=O)Nc3ccc(NC(=O)c4cccnc4N)cc3)ccc2n1 [Example 21, 4-Amino-N-(4-{[(2-amino-3-pyridinyl)carbonyl]amino}phenyl)-2-methyl-6-quinolinecarboxamide]
11.1 µM | Cc1cc(N)c2cc(C(=O)Nc3ccc(NC(=O)c4ccc(N)nc4)cc3)ccc2n1 [Example 22, 4-Amino-N-(4-{[(2-amino-5-pyridinyl)carbonyl]amino}phenyl)-2-methyl-6-quinolinecarboxamide]
42.1 µM | Cc1cc(N)c2cc(C(=O)Nc3ccc(NC(=O)c4ccc(O)nc4)cc3)ccc2n1 [Example 23, 4-Amino-N-(4-{[(2-hydroxy-5-pyridinyl)carbonyl]amino}phenyl)-2-methyl-6-quinolinecarboxamide]
15.2 µM | Cc1cc(N)c2cc(C(=O)Nc3ccc(NC(=O)c4cnccn4)cc3)ccc2n1 [Example 24, 4-Amino-N-(4-{[(2-pyrazinyl)carbonyl]amino}phenyl)-2-methyl-6-quinolinecarboxamide]
22.9 µM | Cc1cc(N)c2cc(C(=O)Nc3ccc(NC(=O)c4cnc(Cl)c(Cl)c4)cc3)ccc2n1 [Example 25, 4-Amino-N-(4-{[(2,3-dichloro-5-pyridinyl)carbonyl]amino}phenyl)-2-methyl-6-quinolinecarboxamide]
32.8 µM | Cc1cc(N)c2cc(C(=O)Nc3ccc(NC(=O)c4ccc(Cl)c(S(N)(=O)=O)c4)cc3)ccc2n1 [Example 26, 4-Amino-N-(4-{[3-(aminosulfonyl)-4-chlorobenzoyl]amino}phenyl)-2-methyl-6-quinolinecarboxamide]
46.5 µM | Cc1cc(N)c2cc(C(=O)Nc3ccc(NC(=O)c4cccc(N(C)C)c4)cc3)ccc2n1 [Example 27, 4-Amino-N-{4-[(3-dimethylaminobenzoyl)amino]phenyl}-2-methyl-6-quinolinecarboxamide]
19.8 µM | Cc1cc(N)c2cc(C(=O)Nc3ccc(NC(=O)c4ccc(OC5CCNCC5)cc4)cc3)ccc2n1 [Example 29, 4-Amino-N-(4-{[4-(4-piperidinyloxy)benzoyl]amino}phenyl)-2-methyl-6-quinolinecarboxamide]
4.03 µM | Cc1cc(N)c2cc(C(=O)Nc3ccc(NC(=O)c4ccc5[nH]c(N)nc5c4)cc3)ccc2n1 [Example 30, 4-Amino-N-(4-{[(2-amino-1H-benzimidazol-5-yl)carbonyl]amino}phenyl)-2-methyl-6-quinolinecarboxamide]
7.5 µM | Cc1cc(N)c2cc(C(=O)Nc3ccc(NC(=O)c4ccc5[nH]cnc5c4)cc3)ccc2n1 [Example 32, 4-amino-N-{4-[(1H-benzimidazol-5-ylcarbonyl)amino]phenyl}-2-methyl-6-quinolinecarboxamide]
1.7 µM | Cc1cc(N)c2cc(C(=O)Nc3ccc(NC(=O)c4ccc5nc(N)ccc5c4)cc3)ccc2n1 [Example 33, 4-Amino-N-(4-{[(2-amino-6-quinolinyl)carbonyl]amino}phenyl)-2-methyl-6-quinolinecarboxamide]
3.61 µM | COc1cc(NC(=O)c2ccc3nc(N)ccc3c2)ccc1NC(=O)c1ccc2nc(C)cc(N)c2c1 [Example 34, 4-Amino-N-(4-{[(2-amino-6-quinolinyl)carbonyl]amino}-2-methoxyphenyl)-2-methyl-6-quinolinecarboxamide]

Molecule | IC50
4-Amino-N-(4-{[(2-methyl-1H-benzimidazol-5-yl)carbonyl]amino}phenyl)-2-methyl-6-quinolinecarboxamide [Example 28] | 9.56 µM
Cc1cc(N)c2cc(NC(=O)c3cccc(Nc4cc(C)[n+](C)c(N)n4)c3)ccc2n1 [Example 2, 2-Amino-4-[3-(4-amino-2-methyl-quinolin-6-ylcarbamoyl)-phenylamino]-1,6-dimethyl-pyrimidin-1-ium] | 8.84 µM
Cc1cc(N)c2cc(C(=O)Nc3ccc(NC(=O)c4ccc5nc(N)sc5c4)cc3)ccc2n1 [Example 31] | 2.9 µM
